Assay results: article PMC3638464, “The transcriptional regulator CprK detects chlorination by combining direct and indirect readout mechanisms” (Philosophical Transactions of the Royal Society B: …, 2013)

Assays:
[1] = assigned value, source not stated; cited from earlier work
[2] = biological target: CprK (Desulfitobacterium hafniense, UniProt B8FW11, C200S); assay: cell-based; format: cell-based; conditions: for n (Hill coefficient) / apparent Kd: in vivo, Hill fit; for n (Hill coefficient) / increase in fluorescence levels (in words): CprK C200S; for apparent Kd: E. coli JM109 DE3, pGFPUV-DB7 + CprK C200S, effector concentration at half Fmax; for increase in fluorescence levels (in words): in vivo reporter
Source text: Previous studies have shown that OCPA-dependent transcriptional activation by CprK can be monitored in Escherichia coli. To avoid any effects coupled to the redox state of the cell, we used a CprK C200S mutant as the basis for all our studies (referred to hereafter as CprK), as it was previously shown that oxidative disulfide bond formation involving C200 inactivates the regulator [23]. A region comprising 123 nucleotides of the upstream dehalobox promotor region of CprA1, containing CprK binding element dehalobox 7 (DB7), was cloned into pGFPUV in order to create a novel in vivo reporter system that makes use of an optimized variant of the green fluorescent protein (GFPUV) from Aequorea victoria. […] No significant increase in fluorescence levels could be detected in the presence of OCPA or similar compounds. […] By contrast, addition of 0.6 μM OCPA to the media leads to a nearly 10-fold increase in fluorescence levels, indicating CprK-mediated, OCPA-dependent transcriptional activation of the GFPUV gene occurs within the E. coli host. […] Our apparent Kd is the binding constant calculated as the concentration at which effector induces half Fmax (maximum fluorescence). […] In contrast to the direct measurement of formation of the CprK : OCPA complex for the in vitro experiment, the in vivo data probably report on the formation of the (CprK : OCPA : dehalobox : RNA polymerase) quaternary complex. […] It appears that under the conditions used for the pGFPUV-DB7-based system, the apparent Kd for OCPA is approximately 100-fold smaller than the established […] Kd values. […] It is important to keep in mind that transport processes could affect the intracellular OCPA concentrations across the membrane, although it would seem logical to assume this would affect OCPA and OCPA-like components in a similar manner. To confirm the apparent Kd value observed reflects inherent CprK affinity for the effector molecule, we measured the increase in fluorescence levels for a range of aromatic compounds.
(§1) Overnight culture (150 μl) was plated onto 96-well optical bottom plates (Nunc). OCPA-related compounds (table 3) were then added to various end concentrations, and the plates placed on a rotary shaker at 37°C for 3 h. GFP fluorescence levels were measured using a Synergy HT microplate reader (BioTek) using a 400 nm, 30 nm bandpass excitation filter and a 508 nm, 20 nm bandpass emission filter. Data were collected using Gen5 v. 1.05 (Biotek) software. Fluorescence was normalized against cell density and measured by absorbance at 600 nm. The fluorescence ratio was plotted against effector concentration, and apparent Kd of binding was calculated using nonlinear curve fitting to a Hill plot.

[3] = biological target: CprK G85A (Desulfitobacterium hafniense, UniProt B8FW11, C200S/G85A); assay: In vivo GFPUV-DB7 reporter assay, G85A CprK mutant; format: cell-based
Method: (§2) Table 1 and figure 3 show the dependence of fluorescence levels on OCPA concentrations for Y76F, G85A, G85P and K133L CprK mutants. […] Compared with the apparent Kd of WT CprK (0.019 ± 0.002 μM) for OCPA, the Y76F mutant has an approximately 500-fold decreased affinity for OCPA. The G85P mutation leads to an even more dramatic 4500-fold decrease, but this is probably not only a consequence of removal of the backbone NH hydrogen bond, but also because of the increased size and restricted conformational freedom of the proline side chain. […] While mutations at position 76 or 85 retain some activity, mutation at position 133 leads to a complete loss of transcriptional activation response. This clearly establishes K133 as the key contributor to the polar network established with the phenol moiety.
as §1, with “OCPA-related compounds (table 3) were then added to various end concentrations, and the plates placed on a rotary shaker at 37°C for 3 h.” left out, “Data were collected using Gen5 v. 1.05 (Biotek) software.” left out

[4] = system: CprK Y76F; design: method as in PMID 16803881; conditions: previous study; cited from earlier work
[5] = biological target: CprK G85P (Desulfitobacterium hafniense, UniProt B8FW11, C200S/G85P); assay: In vivo GFPUV-DB7 reporter assay, G85P CprK mutant; format: cell-based
Method: as §2
as §1, with “OCPA-related compounds (table 3) were then added to various end concentrations, and the plates placed on a rotary shaker at 37°C for 3 h.” left out, “Data were collected using Gen5 v. 1.05 (Biotek) software.” left out

[6] = system: CprK; conditions: cited from earlier work
[7] = biological target: CprK Y76F (Desulfitobacterium hafniense, UniProt B8FW11, C200S/Y76F); assay: In vivo GFPUV-DB7 reporter assay, Y76F CprK mutant; format: cell-based
Method: as §2
as §1, with “OCPA-related compounds (table 3) were then added to various end concentrations, and the plates placed on a rotary shaker at 37°C for 3 h.” left out, “Data were collected using Gen5 v. 1.05 (Biotek) software.” left out

[8] = system: CprK K133L; assay: In vivo GFPUV-DB7 reporter assay, K133L CprK mutant; format: cell-based, Desulfitobacterium hafniense
Method: as §2
as §1, with “OCPA-related compounds (table 3) were then added to various end concentrations, and the plates placed on a rotary shaker at 37°C for 3 h.” left out, “Data were collected using Gen5 v. 1.05 (Biotek) software.” left out

CprK (Desulfitobacterium hafniense, UniProt B8FW11, C200S), sequence (B8FW11 entry or part of it C200S): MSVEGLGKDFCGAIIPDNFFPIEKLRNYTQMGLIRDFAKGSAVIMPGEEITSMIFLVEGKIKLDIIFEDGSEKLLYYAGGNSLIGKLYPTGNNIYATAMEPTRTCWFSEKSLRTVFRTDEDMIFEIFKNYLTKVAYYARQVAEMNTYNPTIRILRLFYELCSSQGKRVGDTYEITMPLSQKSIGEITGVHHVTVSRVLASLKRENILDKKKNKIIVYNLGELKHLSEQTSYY
CprK Y76F (Desulfitobacterium hafniense, UniProt B8FW11, C200S/Y76F), sequence (B8FW11 entry or part of it Y76F/C200S): as the sequence (B8FW11 entry or part of it C200S) above, with Y76F counted along it
CprK G85A, sequence (B8FW11 entry or part of it G85A/C200S): as the sequence (B8FW11 entry or part of it C200S) above, with G85A counted along it
CprK G85P, sequence (B8FW11 entry or part of it G85P/C200S): as the sequence (B8FW11 entry or part of it C200S) above, with G85P counted along it

SMILES	pKa value of R1 (phenol –OH) [1]	n (Hill coefficient) [2]	apparent Kd ([2]; 3 h)	further results
O=[N+]([O-])c1ccc(O)c(Br)c1 [2-bromo-4-nitrophenol]	–OH (5.5)	2.1 ± 0.1	–	–
O=C(O)Cc1ccc(O)c(F)c1 [3-fluoro-4-hydroxyphenylacetic acid]	–OH (8.8)	1.8 ± 0.2	–	–
Cc1cc([N+](=O)[O-])ccc1N [2-methyl-4-nitroaniline]	–	–	no binding	–
O=C(O)Cc1ccc(O)c(Br)c1 [3-bromo-4-hydroxyphenylacetic acid]	–OH (8.5)	3.2 ± 0.5	–	–
Cc1cc([N+](=O)[O-])ccc1O [2-methyl-4-nitrophenol]	–OH (7.4)	1.8 ± 0.1	–	difference between o-methyl-p-nitrophenol and p-nitrophenol (apparent Kd) ([2]; apparent in vivo Kd): approximately sevenfold
O=[N+]([O-])c1ccc(O)c(Cl)c1 [2-chloro-4-nitrophenol]	–	1.7 ± 0.2	–	–
O=[N+]([O-])c1ccc(O)cc1 [4-nitrophenol]	–OH (7.2)	2.8 ± 0.2	–	–
O=[N+]([O-])c1ccc(O)c(F)c1 [2-fluoro-4-nitrophenol]	–OH (5.7)	4.7 ± 0.6	–	–
O=C(O)Cc1ccc(O)c(Cl)c1 [OCPA, 3-chloro-4-hydroxyphenylacetic acid]	–OH (8.5)	2.0 ± 0.2	–	Kd [3]: 1.03 ± 0.06 µM; n (Hill coefficient) ([3]; in vivo, G85A mutant): 1.5 ± 0.1; decrease in the Kd caused by the Y76F mutation [4]: approximately 10 fold; Kd [5]: 86.7 ± 5.8 µM; n (Hill coefficient) ([5]; in vivo, G85P mutant): 1.9 ± 0.3; fold induction at 0.6 µM ([2]; 3 h, read-out: increase in fluorescence levels): ~10; apparent Kd smaller than established Kd values ([2]; pGFPUV-DB7 system vs earlier Kd values): approximately 100 fold; increase of CprK affinity in the presence of a DNA promoter fragment [6]: approximately 10 fold; difference in affinity between OCPA and HPA ([6]; estimated from indirect in vitro measurements): ~10^4; Kd ([6]; previously reported in vitro): 0.8 to 3.5 µM; Kd [7]: 10.2 ± 0.9 µM; n (Hill coefficient) ([7]; in vivo, Y76F mutant): 1.6 ± 0.1; transcriptional activation response (in words) [8]: complete loss; Kd (apparent) ([8]; in vivo): no response
Nc1ccc([N+](=O)[O-])cc1Cl [2-chloro-4-nitroaniline]	–	–	no binding	increase in fluorescence levels (in words) [2]: No increase
O=C(O)Cc1ccc(O)cc1 [HPA, 4-hydroxyphenylacetic acid]	–OH (10.2)	2.1 ± 0.2	–	–
Nc1ccc([N+](=O)[O-])cc1 [4-nitroaniline]	–	–	no binding	–
O=C(O)Cc1cccc(Cl)c1 [3-chloro-phenylacetic acid]	–	–	no binding	increase in fluorescence levels (in words) [2]: No increase
